Patent US7838288B2, “Modulators of odorant receptors” (Duke University, priority 2004, dated 2010)

Assays:
olfr62 = test: CRE-luciferase reporter gene assay, olfr62; assay type: cell-based, mouse; details: Hana3A cells
Procedure: Four ORs (S6/79, S18, S46 and S50) previously assayed using other techniques (see, e.g., Malnic, B., et al. (1999) Cell 96, 713-723; herein incorporated by reference in its entirety) were tested against an assay panel of aliphatic alcohols, aldehydes and acids and some other odorants. Additionally, five “orphan” class I ORs (MOR23-1, MOR31-4, MOR31-6, MOR32-5 and MOR32-11) whose cognate ligands were unknown were tested. At a suprathreshold concentration of 100 uM, all these ORs were odorant selective, responding to only a small subset of the odorants tested (see FIG. 11A). This specificity was retained at lower, more physiologically relevant concentrations. Many of these ORs responded to odorants present in micromolar concentrations. The cell-surface expression of these ORs by living-cell immunofluorescence were evaluated. Some ORs (S18, MOR31-4, MOR31-6 and MOR32-5) were strongly expressed while other ORs (S6, S50, MOR23-1, MOR32-11) were weakly expressed (see FIG. 12). The present invention is not limited to a particular mechanism. Indeed, an understanding of the mechanism is not necessary to practice the present invention. […] Finally, two additional orphan class II ORs, MOR203-1 and olfr62, were tested against a panel of 139 odorants. […] Olfr62 responded to coumarine and piperonal (see FIG. 11C). […] When parental 293T cells for these ORs were used in this luciferase assay, little or no response to the odorants was observed. The present invention is not limited to a particular mechanism. Indeed, an understanding of the mechanism is not necessary to practice the present invention.
Dual-Glo system (Promega) for luciferase assay was used. CRE-Luciferase (Stratagene) was used to measure the receptor activities. Renilla luciferase driven by constitutively active SV40 promoter (pRL-SV40: Promega) was used as an internal control. Cells were plated on poly-D-lysine coated 96 well plates (BIOCOAT, Beckton Dickinson). After 8 hours (for experiments shown in FIGS. 8B and 8C) or 12 hours (for experiments shown in FIG. 8D and FIG. 11) after transfection, the medium was replaced with CD293 chemically defined medium (Invitrogen) and the plates were incubated for one hour at 37 degrees C. The medium was replaced with 50 ul of odorant solutions dissolved in CD293 and incubated for 10 hours (for experiments shown in FIGS. 8B and 8C) or 4 hours (for experiments shown in FIG. 8D and FIG. 11) at 37 degrees C. The manufacture's protocol for measuring luciferase and Renilla luciferase activities was followed. Luminescence was measured using Wallac Victor 1420 (Perkin-Elmer). Normalized luciferase activity was calculated as [Luc (N)-Luc (0)]/RL (N), where Luc (N)=Luminescent count of a certain well, Luc (0)=Luminescent count without odorant for each OR, and RL (N)=Luminescent count of Renilla Luciferase of each well. For cAMP assays, cells were plated onto 24-well plate. […]. Prism software (Graphpad) was used for data analysis. […]

[1] = system: Eight other ORs located near the IVA locus; test: Luciferase assay, other ORs near the IVA locus; assay type: cell-based
Description: In experiments conducted during the course of the present invention, not only three class I ORs (S46, MOR23-1, MOR31-4) but also MOR203-1, a class II OR, responded to nonanoic acid. The present invention is not limited to a particular mechanism. Indeed, an understanding of the mechanism is not necessary to practice the present invention. […] Olfr62 is one of the closely related ORs located near or at the IVA locus, implicated in isovaleric acid sensation (see, e.g., Griff, I. C., and Reed, R. R. (1995) Cell 83, 407-414; Zhang, X., and Firestein, S. (2002) Nat Neurosci 5, 124-133; each herein incorporated by reference in their entireties). […] The present invention is not limited to a particular mechanism. Indeed, an understanding of the mechanism is not necessary to practice the present invention.
Dual-Glo system (Promega) for luciferase assay was used. CRE-Luciferase (Stratagene) was used to measure the receptor activities. Renilla luciferase driven by constitutively active SV40 promoter (pRL-SV40: Promega) was used as an internal control. […] Luminescence was measured using Wallac Victor 1420 (Perkin-Elmer). Normalized luciferase activity was calculated as [Luc (N)-Luc (0)]/RL (N), where Luc (N)=Luminescent count of a certain well, Luc (0)=Luminescent count without odorant for each OR, and RL (N)=Luminescent count of Renilla Luciferase of each well. […]

CC(C)CC(=O)O [isovaleric acid, Isovaleric acid]
response of olfr62 to odorant (luciferase) (olfr62): did not respond | response of eight other ORs near the IVA locus to odorant [1]: none of them responded
